Patent US9944666B2, “Compounds that are S1P modulating agents and/or ATX modulating agents” (BIOGEN MA INC., priority 2012, dated 2018)

Biological target: T1, Human ATX protein (Homo sapiens, UniProt Q13822)
T1 construct: made in house
Assay: ATX biochemical FRET assay with FS-3 substrate
Conditions: FS-3 2 μM, ATX 1.0 μg/mL, room temperature 2 hours, fluorescence 485/538 nm
In short: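 Purified human ATX (1.0 μg/mL final) preincubated with compound 30 min at room temperature in Tris pH 7.4 buffer with NaCl, KCl, CaCl2, MgCl2 and 1 mg/mL fatty acid-free BSA. FS-3 added to 2 μM final; 2 h at room temperature in the dark, fluorescence at ex 485/em 538 nm.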

Row | Structure (SMILES) | IC50 [nM]
1 | O=C(O)C1CC2(C1)CN(Cc1ccc3c(C(F)(F)F)c(O[C@H]4CC[C@@H](C(F)(F)F)CC4)ccc3c1)C2 [Example 146, 2-((5-(trifluoromethyl)-6-((cis-4-(trifluoromethyl)cyclohexyl)oxy)naphthalen-2-yl)methyl)-2-azaspiro[3.3]heptane-6-carboxylic acid] | ≤ 250
2 | O=C(O)C1CC2CN(Cc3ccc4c(C(F)(F)F)c(OC5CCC(C(F)(F)F)CC5)ccc4c3)CC2C1 (stereo not shown) [Example 154, 3-(5-trifluoromethyl-6-(4-trifluoromethyl-cyclohexyloxy)-naphthalen-2-ylmethyl)-3-azabicyclo[3.3.0]octane-7-carboxylic acid] | ≤ 250
3 | O=C(O)C1CC2CCC(C1)N2C(=O)c1ccc2c(Cl)c(O[C@H]3CC[C@@H](C(F)(F)F)CC3)ccc2c1 (stereo partly drawn) [Example 186, 8-(5-chloro-6-((cis-4-(trifluoromethyl)cyclohexyl)oxy)-2-naphthoyl)-8-azabicyclo[3.2.1]octane-3-carboxylic acid] | ≤ 250
4 | C[C@H]1CC[C@@H](Oc2ccc3cc(CN4C5CCC4CC(C(=O)O)C5)ccc3c2C#N)CC1 (stereo partly drawn) [Example 188, 8-((5-cyano-6-((cis-4-methylcyclohexyl)oxy)naphthalen-2-yl)methyl)-8-azabicyclo[3.2.1]octane-3-carboxylic acid] | ≤ 500
5 | CC(c1ccc2c(C#N)c(O[C@H]3CC[C@@H](C)CC3)ccc2c1)N1C2CCC1CC(C(=O)O)C2 (stereo partly drawn) [Example 189, 8-(1-(5-cyano-6-((cis-4-methylcyclohexyl)oxy)naphthalen-2-yl)ethyl)-8-azabicyclo[3.2.1]octane-3-carboxylic acid] | ≤ 250
6 | O=C(O)C1CC2CCC(C1)N2C(=O)c1ccc2c(C(F)(F)F)c(N[C@H]3CC[C@@H](C(F)(F)F)CC3)ccc2c1 (stereo partly drawn) [Example 190, 8-(5-(trifluoromethyl)-6-((cis-4-(trifluoromethyl)cyclohexyl)amino)-2-naphthoyl)-8-azabicyclo[3.2.1]octane-3-carboxylic acid] | ≤ 100
7 | CC(C)(C)[C@H]1CC[C@H](Nc2ncc3cc(C(=O)N4C5CCCC4CC(C(=O)O)C5)ccc3n2)CC1 (stereo partly drawn) [Example 191, 9-(2-((trans-4-(tert-butyl)cyclohexyl)amino)quinazoline-6-carbonyl)-9-azabicyclo[3.3.1]nonane-3-carboxylic acid] | ≤ 100
8 | CC(C)(C)[C@H]1CC[C@H](Nc2cc3ccc(C(=O)N4C5CCC4CC(C(=O)O)C5)cc3cn2)CC1 (stereo partly drawn) [Example 194, 8-(3-((trans-4-(tert-butyl)cyclohexyl)amino)isoquinoline-7-carbonyl)-8-azabicyclo[3.2.1]octane-3-carboxylic acid] | ≤ 100
9 | O=C(O)C1CC2CCCC(C1)N2Cc1cc2ccc(O[C@H]3CC[C@@H](C(F)(F)F)CC3)c(C(F)(F)F)c2cn1 (stereo partly drawn) [Example 197, 9-((8-(trifluoromethyl)-7-((cis-4-(trifluoromethyl)cyclohexyl)oxy)isoquinolin-3-yl)methyl)-9-azabicyclo[3.3.1]nonane-3-carboxylic acid] | ≤ 500
10 | CC[C@H]1CC[C@@H](Oc2ccc3nc(NC4C5CCCC4CC(C(=O)O)C5)ccc3c2C(F)(F)F)CC1 (stereo partly drawn) [Example 198, 9-((6-((cis-4-ethylcyclohexyl)oxy)-5-(trifluoromethyl)quinolin-2-yl)amino)bicyclo[3.3.1]nonane-3-carboxylic acid] | ≤ 100
11 | CC[C@H]1CC[C@@H](Oc2ccc3cc(CN4C5CCCC4CC(C(=O)O)C5)ccc3c2C#N)CC1 (stereo partly drawn) [Example 199, 9-((5-cyano-6-((cis-4-ethylcyclohexyl)oxy)naphthalen-2-yl)methyl)-9-azabicyclo[3.3.1]nonane-3-carboxylic acid] | ≤ 100
12 | CC[C@H]1CC[C@@H](Oc2ccc3cc(CN4C5CCC4CC(C(=O)O)C5)ccc3c2C#N)CC1 (stereo partly drawn) [Example 200, 8-((5-cyano-6-((cis-4-ethylcyclohexyl)oxy)naphthalen-2-yl)methyl)-8-azabicyclo[3.2.1]octane-3-carboxylic acid] | ≤ 500
13 | O=C(O)C1CC2CCCC(C1)N2C(=O)c1ccc2c(Cl)c(O[C@H]3CC[C@@H](C(F)(F)F)CC3)ccc2c1 (stereo partly drawn) [Example 201, 9-(5-chloro-6-((cis-4-(trifluoromethyl)cyclohexyl)oxy)-2-naphthoyl)-9-azabicyclo[3.3.1]nonane-3-carboxylic acid] | ≤ 250
14 | CCC(c1ccc2c(Cl)c(O[C@H]3CC[C@@H](C(F)(F)F)CC3)ccc2c1)N1C2CCC1CC(C(=O)O)C2 (stereo partly drawn) [Example 202, 8-(1-(5-chloro-6-((cis-4-(trifluoromethyl)cyclohexyl)oxy)naphthalen-2-yl)propyl)-8-azabicyclo[3.2.1]octane-3-carboxylic acid] | ≤ 100
15 | C[C@H]1CC[C@@H](Oc2ccc3cc(C(=O)N4C5CCC4CC(C(=O)O)C5)ccc3c2Cl)CC1 (stereo partly drawn) [Example 203, 8-(5-chloro-6-((cis-4-methylcyclohexyl)oxy)-2-naphthoyl)-8-azabicyclo[3.2.1]octane-3-carboxylic acid] | ≤ 250
16 | CCC(c1ccc2c(C(F)(F)F)c(O[C@H]3CC[C@@H](C(C)(F)F)CC3)ccc2c1)N1C2CCC1CC(C(=O)O)C2 (stereo partly drawn) [Example 204, 8-(1-(6-((cis-4-(1,1-difluoroethyl)cyclohexyl)oxy)-5-(trifluoromethyl)naphthalen-2-yl)propyl)-8-azabicyclo[3.2.1]octane-3-carboxylic acid] | ≤ 100
17 | CC(c1ccc2c(Cl)c(O[C@H]3CC[C@@H](C)CC3)ccc2c1)N1C2CCC1CC(C(=O)O)C2 (stereo partly drawn) [Example 205, 8-(1-(5-chloro-6-((cis-4-methylcyclohexyl)oxy)naphthalen-2-yl)ethyl)-8-azabicyclo[3.2.1]octane-3-carboxylic acid] | ≤ 250
18 | N#Cc1c(O[C@H]2CC[C@@H](C(F)(F)F)CC2)ccc2cc(C(=O)N3C4CCCC3CC(C(=O)O)C4)ccc12 (stereo partly drawn) [Example 206, 9-(5-cyano-6-((cis-4-(trifluoromethyl)cyclohexyl)oxy)-2-naphthoyl)-9-azabicyclo[3.3.1]nonane-3-carboxylic acid] | ≤ 100
19 | C[C@H]1CC[C@@H](Oc2ccc3cc(CN4C5CCCC4CC(C(=O)O)C5)ccc3c2C#N)CC1 (stereo partly drawn) [Example 207, 9-((5-cyano-6-((cis-4-methylcyclohexyl)oxy)naphthalen-2-yl)methyl)-9-azabicyclo[3.3.1]nonane-3-carboxylic acid] | ≤ 100
20 | C[C@H]1CC[C@@H](Oc2ccc3cc(C(=O)N4C5CCCC4CC(C(=O)O)C5)ccc3c2Cl)CC1 (stereo partly drawn) [Example 208, 9-(5-chloro-6-((cis-4-methylcyclohexyl)oxy)-2-naphthoyl)-9-azabicyclo[3.3.1]nonane-3-carboxylic acid] | ≤ 250
21 | CC(F)(F)[C@H]1CC[C@@H](Oc2ccc3cc(CN4C5CCCC4CC(C(=O)O)C5)ccc3c2C(F)(F)F)CC1 (stereo partly drawn) [Example 209, 9-((6-((cis-4-(1,1-difluoroethyl)cyclohexyl)oxy)-5-(trifluoro-methyl)naphthalen-2-yl)methyl)-9-azabicyclo[3.3.1]nonane-3-carboxylic acid] | ≤ 100
22 | CCC(c1ccc2c(Cl)c(O[C@H]3CC[C@@H](C)CC3)ccc2c1)N1C2CCC1CC(C(=O)O)C2 (stereo partly drawn) [Example 210, 8-(1-(5-chloro-6-((cis-4-methylcyclohexyl)oxy)naphthalen-2-yl)propyl)-8-azabicyclo[3.2.1]octane-3-carboxylic acid] | ≤ 100
